Data taken from paper PMC7942396, “Drug Repurposing Screen for Compounds Inhibiting the Cytopathic Effect of SARS-CoV-2” (Frontiers in Pharmacology, 2021).
Where a name gives a salt, the structure may show the parent alone. Read-outs that look alike come from different tables or passages of the source.

Legend:
[1] = system: Vero E6 cells
[2] = system: SARS-CoV-2 (USA_WA1/2020); test: microbe, parasite or virus in culture; type: cell-based; conditions: for EC50: read-out: CPE EC50
[3] = cytotoxicity counter-assay, Vero E6 cells without virus
[4] = SARS-CoV-2 CPE assay, Vero E6 cells
[5] = read-out: Cytotox CC50, cytotoxicity counter-assay, Vero E6 cells without virus
[6] = SARS-CoV-2 CPE assay, Vero E6 cells, confirmed anti-SARS-CoV-2 compounds
[7] = SARS-CoV-2 CPE assay, Vero E6 cells, efficacy
[8] = […], DMSO 0%, no-virus control 100%, hit confirmation
[9] = Vero E6 cells without virus, 72 h

Compound	% Cytotox [1, 3]	CPE % Efficacy [2, 4]	EC50 [2, 4]	CC50 [1, 5]	EC50 [2, 6]	CPE % Efficacy [2, 7]	further results
CNC(=O)c1ccc2c(C(=Nc3cccc(CN(C)C)c3)c3ccccc3)c(O)[nH]c2c1 [NCGC00346543]	22.6%	94.9%	12.6 µM				
CCc1ccccc1OC[C@@H](O)CN[C@H]1CCCc2ccccc21.Cl [SR 59230A hydrochloride]	13.9%	108.4%	11.2 µM	17.8 µM			
CN1CCN(C(=O)c2ccc(Nc3nccc(-c4cccs4)n3)cc2Cl)CC1	55.6%			10 µM	11.2 µM	71.5%	
COc1ccccc1OCCNCC(O)COc1cccc2[nH]c3ccccc3c12.O=C(O)C(O)C(O)C(=O)O (stereo not shown) [Carvedilol tartrate]	12.7%			11.2 µM	11.2 µM	101.1%	
Nc1ncnc2c1c(-c1cccc(OCc3ccccc3)c1)cn2C1CC(CN2CCCC2)C1 (stereo not shown) [ADW-742]	106.8%			12.6 µM	7.94 µM	55.7%	
Cc1cccc(Nc2nc(-c3ccncc3)cs2)c1 [STF-62247, reference compound]							CC50 ([1]; read-out: Cytotox CC50, Vero E6 cells without virus, 72 h): 11.2 µM; Shape of concentration-response in the CPE assay ([2]; Figure 3): bell-shaped concentration-responses due to cytotoxicity; CPE % Efficacy [2, 8]: 107.1%; EC50 [2]: 1.1 µM
CC1(CN2CCC(n3c(=O)[nH]c4ccccc43)CC2)OCc2ccccc2-n2cccc21.O=C(O)/C=C\C(=O)O (stereo not shown) [Zaldaride maleate]	0.0%				11.2 µM	81.7%	
COc1cc(-n2cnc3cc(-c4ccc(Cl)cc4)sc3c2=O)ccc1OCCN1CCCC1 [GW 803430, reference compound]							% Cytotox [1, 9]: <30%; CPE % Efficacy [2, 8]: 93.3%; EC50 [2]: 3.5 µM
O=c1[nH]c2ccccc2n1C1CCN(Cc2ccc(-c3nc4cc5nc[nH]c5cc4nc3-c3ccccc3)cc2)CC1 [Akt-I-1,2]	34.2%	91.3%	11.2 µM	12.6 µM			
C=C1Cc2c(Cl)cc3[nH]c4c5c3c2[C@@]2(O)[C@@H]1C[C@@H]2C(C)(C)O[C@H]5C1CC[C@@]2(O)[C@@]35O[C@@H]3[C@H]3OC(C)(C)[C@H]3O[C@H]5CC[C@]2(C)[C@@]41C (stereo partly shown) [NCGC00380694]	19.8%			4.74 µM	2.99 µM	50.6%	
O=C1NC(=O)/C(=C/c2cccc(C(F)(F)F)c2)S1 [SMI-4a]	29.5%	43.9%	12.6 µM				
Cc1ccc(NC(=O)C(C)C)cc1C1CCN(Cc2ccc(Oc3ccc(F)c(F)c3)cc2)CC1.Cl [SNAP 94847 hydrochloride]	95.1%			12.6 µM	4.47 µM	60.0%	
C/C(=N\NC(=O)c1cccc(S(=O)(=O)N2CCOCC2)c1)c1cc(Cl)ccc1O [SP2509]	67.4%			1 µM	1.26 µM	42.0%	
CO[C@@H]1[C@@H](O[C@@H]2O[C@H](C)[C@@H](O[C@H]3C[C@@](C)(O)[C@@H](O)[C@H](C)O3)[C@H](N(C)C)[C@H]2O)[C@@H](CC=O)C[C@@H](C)[C@@H](O[C@H]2CC[C@H](N(C)C)[C@@H](C)O2)/C=C/C=C/C[C@@H](C)OC(=O)C[C@H]1OC(C)=O [Spiramycin II]	0.0%	33.4%	14.1 µM				
Cc1nc(C)c(CN2CCN(C(c3ccc(F)cc3)c3ccc(F)cc3)CC2)nc1C [CXC-195]	0.0%	32.4%	12.6 µM				
CCN(CC)CCCS(=O)(=O)N[C@H](CCc1ccccc1)c1nc(Cc2ccc(Br)cc2)no1 [CpdD hydrochloride, reference compound]							% Cytotox [1, 9]: <30%; CPE % Efficacy [2, 8]: 96.9%; EC50 [2]: 10 µM
CC/C(=C(/CC)c1ccc(O)c(CN(CC)CC)c1)c1ccc(O)c(CN(CC)CC)c1 [NSC 33994, reference compound]							% Cytotox [1, 9]: <30%; CPE % Efficacy [2, 8]: 107.6%; EC50 [2]: 8.9 µM
C/C1=C/CCC2=CC(OC2=O)C(C)(C)/C=C\C1=O (stereo not shown) [Asteriscunolide D, reference compound]							% Cytotox [1, 9]: <30%; CPE % Efficacy [2, 8]: 93.3%; EC50 [2]: 10 µM
O=C1NC(=O)/C(=C/c2ccc3c(c2)OC(F)(F)O3)S1 [AS-604850]	31.8%	49.2%	12.6 µM	11.2 µM			
CC1(N2CCC(n3c([C@@H]4CCCNC4)nc4ccccc43)CC2)CCCCCCC1 [MCOPPB, reference compound]							% Cytotox [1, 9]: <30%; CPE % Efficacy [2, 8]: 85.6%; EC50 [2]: 3.5 µM
Cc1cnc(NC(=O)c2cc(S(=O)(=O)N(C)C)ccc2N2CCCC2)s1 [ML414, reference compound]							% Cytotox [1, 9]: <30%; EC50 [2]: 3.2 µM

Compound	% Cytotox [1, 3]	CPE % Efficacy [2, 4]	EC50 [2, 4]	CC50 [1, 5]	EC50 [2, 6]	CPE % Efficacy [2, 7]	further results
C[C@H](CCC(=O)O)C[C@H](C)C[C@H](C)C(=O)/C=C(\O)[C@H](C)C[C@H](C)C/C=C/[C@@H](C)[C@@H](O)[C@@H](C)[C@@H](O)C[C@@H]1CC[C@@](C)([C@H]2CC[C@@](C)([C@@H](C)O)O2)O1 [Ionomycin(Calciumsalt)]	69.7%			6.95 µM	7.8 µM	90.4%	
COc1cccc(NC[C@@H](O)Cn2c3ccc(Br)cc3c3cc(Br)ccc32)c1 [(R)-P7C3-Ome]	32.2%	63.4%	12.6 µM	11.2 µM			
COc1cc2nc(-c3ccc(N4CCN(C)CC4)cc3)nc(NCCN3CCOCC3)c2cc1OC [CPG-52364]	41.6%			10 µM	11.2 µM	63.1%	
C[C@@H]1O[C@@H](O[C@H]2[C@H](OC(=O)[C@]34CCC(C)(C)C[C@H]3C3=CCC5[C@@]6(C)C[C@H](O)[C@H](O[C@@H]7O[C@H](CO[C@@H]8OC[C@H](O)[C@H](O)[C@H]8O)[C@@H](O)[C@H](O)[C@H]7O)C(C)(C)C6CC[C@@]5(C)[C@]3(C)C[C@H]4O)OC[C@@H](O)[C@@H]2O)[C@H](O)[C@H](O[C@@H]2OC[C@](O)(CO)[C@H]2O)[C@H]1O[C@@H]1OC[C@H](O)[C@H](O[C@@H]2OC[C@@H](O)[C@H](O)[C@H]2O)[C@H]1O (stereo partly shown) [NCGC00385321]	35.4%			2.4 µM	2.4 µM	105.7%	
CCCCN1[C@@H]2CC[C@H]1CC(OC(c1ccc(F)cc1)c1ccc(F)cc1)C2.Cl (stereo partly shown) [JHW 007 hydrochloride]	38.8%			12.6 µM	7.08 µM	87.4%	
C/C=C(\C)C(=O)OC1C(C)C2(O)C3C=C(C)C(=O)C3CC(CO)=CC2C2C(C)(C)C12OC(C)=O (stereo not shown) [NCGC00380717]	9.9%			0.35 µM	0.78 µM	67.0%	
Nc1nc2c(c(N3CC[C@@H](N)C3)n1)CCCc1ccccc1-2 [A 943931]	34.8%			12.6 µM	11.2 µM	104.3%	
COc1cc2ncnc(Sc3nnc(C)s3)c2cc1OC [SKLB1002]	34.8%			7.08 µM	3.55 µM	73.0%	
CS(=O)(=O)O.Cc1ncc(NC(=O)c2ccc(CN3CCN(C)CC3)c(C(F)(F)F)c2)cc1Nc1nccc(-c2cccnc2)n1 [Flumatinib mesylate]	11.1%	134.3%	12.6 µM	4.47 µM			
O=C(NCCCN1CCN(c2ccccc2F)CC1)c1ccc2nc(Cc3ccccc3)oc2c1 [NCGC00133175]	25.5%	95.1%	14.1 µM	15.8 µM			
O=S(=O)(c1cccc2c(I)cccc12)N1CCCNCC1 [ML-7]	20.3%	36.2%	12.6 µM	19.9 µM			
CC(=O)O/N=C1\C(=O)N(Cc2cc(Cl)ccc2Cl)c2ccc(Cl)cc21 [LDN-57444]					11.2 µM	129.8%	% Cytotox [1]: 40.6%; CC50 [1]: 12.6 µM
CCN(CC)Cc1cccc(/C=C/c2nc3ccc(F)cc3c(=O)n2-c2ccccc2Cl)n1.Cl [CP 465022 hydrochloride]	47.9%			12.6 µM	10 µM	77.3%	
10058-F4	34.2%	62.2%	12.6 µM				
C/C=C(/C)C(=O)O[C@H]1[C@@H]2[C@H](C)C(=O)O[C@@H]2C[C@@H](C)[C@@H]2C=CC(=O)[C@]21C [Brevelin A]	59.7%			11.2 µM	3.55 µM	61.5%	
Cc1c(C(=O)Nc2cccc(C(F)(F)F)c2)cc(-c2ccccc2)n1CCCN1CCOCC1 [HC-067047]	45.7%				10 µM	64.2%	
CC(C)c1cccc2c(-c3ccccc3)cc(-c3ccc(-c4ccc(C(=O)O)cc4)[nH]3)nc12 [ER 50891]	16.9%			15.8 µM	11.2 µM	88.0%	
CN(C)CC(=O)N1CCC(c2ccc(NC(=O)c3nc(C#N)c[nH]3)c(C3=CCCCC3)c2)CC1 [JNJ-28312141]	60.9%	37.8%	14.1 µM	12.6 µM			
CS(=O)(=O)NCC1CCC(Nc2nc3c(s2)CCSc2ccccc2-3)CC1 (stereo not shown) [LU AA33810]	0.0%	48.3%	12.6 µM				
NC(=O)c1cccc(-c2cc(Nc3ccc(OC(F)(F)F)cc3)ncn2)c1 [GNF-2]	0.0%	63.4%	11.2 µM				
Cn1ncc2cc(-c3cnc(N)c(Cl)c3N3CCC4(CCNC4=O)CC3)ccc21 [CCT-251921]	39.8%				2.82 µM	87.9%	
